ChEMBL document CHEMBL1817565, “Synthesis and antimalarial evaluation of novel benzopyrano[4,3-b]benzopyran derivatives” (Bioorg Med Chem, 2011)

How the values were obtained:
Plasmodium falciparum = test: Antimalarial activity against chloroquine-sensitive Plasmodium falciparum 3D7 infected in erythrocytes assessed as [3H] incorporation after 48 hrs by scintillation counter; assay type: functional, organism-based
[1] = Cytotoxicity against human NFF cells at 50 uM after 3 days by sulforhodamine B assay; assay type: cell-based; conditions: read-out: INH
[2] = Selectivity ratio of cytotoxicity against human NFF cells to IC50 for Plasmodium falciparum 3D7; assay type: cell-based

Row | SMILES | IC50 (Plasmodium falciparum) [µM] | cytotoxicity at 72 h, 50 µM [1] [%] | selectivity ratio [2]
1 | COc1cc(OC)c2c(c1OC)O[C@H]1c3c(OC)cc(OC)c(OC)c3O[C@H](c3ccc(Br)cc3)[C@H]1[C@@H]2/C=C/c1ccc(Br)cc1 | 2.9 | 46.3 | 10
2 | COc1cc(OC)c2c(c1OC)O[C@H]1c3c(OC)cc(OC)c(OC)c3O[C@H](c3ccc(Cl)cc3)[C@H]1[C@@H]2/C=C/c1ccc(Cl)cc1 | 3.3 | 98.4 | 
3 | COc1ccc(/C=C/[C@@H]2c3c(OC)cc(OC)c(OC)c3O[C@H]3c4c(OC)cc(OC)c(OC)c4O[C@H](c4ccc(OC)cc4)[C@@H]23)cc1 | 3.2 | 43.2 | 10
4 | COc1cc(OC)c2c(c1OC)O[C@H]1c3c(OC)cc(OC)c(OC)c3O[C@H](c3ccc(C)cc3)[C@H]1[C@@H]2/C=C/c1ccc(C)cc1 | 1.9 | 47.2 | 10
5 | COc1cc(OC)c2c(c1OC)O[C@H]1c3c(OC)cc(OC)c(OC)c3O[C@H](c3ccccc3)[C@H]1[C@@H]2/C=C/c1ccccc1 [DEPENDENSIN] | 3.9 | 46.9 | 10
